From ChEMBL document CHEMBL5661943, “ASAP - In vitro antiviral effect” (2024)

Experiments:
Zika virus = experiment: Functional CPE-based assay to measure dose dependent changes in antiviral-drug inhibitory efficacy against Zika virus MR766 in Vero E6 miRFP670 cells. Cells are treated with antiviral candidates that are serially diluted. EC50 is reported via analysis of MTS assay as a readout of CPE. The assay has been performed by KU Leuven.; type: organism-based, Chlorocebus sabaeus, Vero C1008; settings: Zika virus
dengue virus type 2 = experiment: Functional assay to measure dose dependent changes in antiviral-drug inhibitory efficacy against Dengue virus type 2 New Guinea C in Vero E6 miRFP670 cells (cotreated with P-gp inhibitor, CP100356). Cells are treated with antiviral candidates that are serially diluted, following infection, cells are fixed. EC50 is reported via analysis of fluorescence intensity using high-content imager. The …; type: organism-based, Chlorocebus sabaeus, Vero C1008; settings: Dengue virus

| SMILES | EC50 (Zika virus; Vero C1008) [µM] | EC50 (dengue virus type 2; Vero C1008) [µM] | also measured |
| --- | --- | --- | --- |
| O=C(Nc1ccc(C2CNC2)cc1)c1cc(Cl)cc2[nH]ncc12 | > 50 | 8.78 | EC90 (Zika virus; Vero C1008, Maximum measured 1.247 %, Minimum measured -2.682 %): > 50 µM; EC90 (dengue virus type 2; Vero C1008, Baseline response 0 %, EC90 CI (lower) 1.814 uM, EC90 CI (upper) 3.53 uM, Hill slope -1.767, Maximum measured 103.682 %, Maximum response 100 %, Minimum measured 12.273 %, P-gp concentration 500 nM, R squared 0.972, P-gp inhibitor CP100356): 30.4 µM |
| NCc1cccc(NC(=O)[C@H](NC(=O)OCc2ccccc2)C2CCC(c3ccccc3)CC2)c1 (some centres undefined) | > 50 | 6.69 | EC90 (Zika virus; Vero C1008, Baseline response 0 %, Hill slope 12.54, Maximum measured 11.506 %, Maximum response 100 %, Minimum measured -10.271 %, R squared 0.094): > 50 µM; EC90 (dengue virus type 2; Vero C1008, Baseline response 0 %, EC90 CI (lower) 1.121 uM, EC90 CI (upper) 23.089 uM, Hill slope -8.04, Maximum measured 108.249 %, Maximum response 100 %, Minimum measured 2.62 %, P-gp concentration 500 nM, R squared 0.836, P-gp inhibitor CP100356): 8.79 µM |
| O=C(Nc1cc(Cl)cc(C(=O)Nc2cccc([C@H]3C[C@H]3C(=O)O)c2)c1)OCc1ccccc1 | > 50 | > 50 | EC90 (Zika virus; Vero C1008, Baseline response 0 %, Hill slope 7.946, Maximum measured 10.264 %, Maximum response 100 %, Minimum measured -1.789 %, R squared 0.722): > 50 µM; EC90 (dengue virus type 2; Vero C1008, Maximum measured 111.056 %, Minimum measured 105.114 %, P-gp concentration 500 nM, P-gp inhibitor CP100356): > 50 µM |
| CCCNC(=O)[C@H](Nc1cccc(-c2nn[nH]n2)c1)c1cc(Cl)cc(NC(=O)OCc2ccccc2)c1 | > 50 | > 50 | EC90 (Zika virus; Vero C1008, Baseline response 0 %, Hill slope 3.408, Maximum measured 22.38 %, Maximum response 100 %, Minimum measured 1.712 %, R squared 0.919): > 50 µM; EC90 (dengue virus type 2; Vero C1008, Baseline response 0 %, Hill slope 1.238, Maximum measured 113.655 %, Maximum response 100 %, Minimum measured 85.317 %, P-gp concentration 500 nM, R squared 0.426, P-gp inhibitor CP100356): > 50 µM |
| O=C(Nc1cc(Cl)cc([C@H]2C[C@@H]2c2cccc(C3CCNCC3)c2)c1)OCc1ccccc1 | > 50 | 1.94 | EC90 (Zika virus; Vero C1008, Maximum measured 2.266 %, Minimum measured -4.892 %): > 50 µM; EC90 (dengue virus type 2; Vero C1008, Baseline response 0 %, Hill slope -2.737, Maximum measured 87.189 %, Maximum response 100 %, Minimum measured 17.217 %, P-gp concentration 500 nM, R squared 0.653, P-gp inhibitor CP100356): > 3.12 µM |
| C=CC[C@H](Nc1ccc(-c2nn[nH]n2)cc1)c1cc(Cl)cc(NC(=O)OCc2ccccc2)c1 | 13.7 | 1.84 | EC90 (Zika virus; Vero C1008, Baseline response 0 %, EC90 CI (lower) 0 uM, EC90 CI (upper) -3.27181e+18 uM, Hill slope 17.95, Maximum measured 103.91 %, Maximum response 100 %, Minimum measured 1.446 %, R squared 0.986): 15.5 µM; EC90 (dengue virus type 2; Vero C1008, Baseline response 0 %, EC90 CI (lower) 0.301 uM, EC90 CI (upper) 0.468 uM, Hill slope -1.382, Maximum measured 87.879 %, Maximum response 100 %, Minimum measured 3.84 %, P-gp concentration 500 nM, R squared 0.99, P-gp inhibitor CP100356): 9.02 µM |
| COc1cccc(-c2ccc([C@@H](NC(=O)OCc3ccccc3)C(=O)Nc3cccc(CN)c3)cc2)c1 | > 50 | 11.3 | EC90 (Zika virus; Vero C1008, Maximum measured 5.224 %, Minimum measured -9.76 %): > 50 µM; EC90 (dengue virus type 2; Vero C1008): 13 µM |
| CCNC(=O)Nc1cc(Cl)cc(C(=O)Nc2ccc3c(c2)CNCCO3)c1 | > 50 | > 25 | EC90 (Zika virus; Vero C1008, Baseline response 0 %, Hill slope 2.475, Maximum measured 7.686 %, Maximum response 100 %, Minimum measured -0.684 %, R squared 0.693): > 50 µM; EC90 (dengue virus type 2; Vero C1008, Maximum measured 150.987 %, Minimum measured 108.938 %, P-gp concentration 500 nM, P-gp inhibitor CP100356): > 25 µM |
| O=C(Nc1cccc(-c2nnn[nH]2)c1)c1cc(Cl)cc(C2CC2)c1 | > 50 | > 50 | EC90 (Zika virus; Vero C1008, Maximum measured 1.772 %, Minimum measured -2.796 %): > 50 µM; EC90 (dengue virus type 2; Vero C1008, Maximum measured 109.091 %, Minimum measured 105.083 %, P-gp concentration 500 nM, P-gp inhibitor CP100356): > 50 µM |
| O=C(Nc1cc(Cl)cc(-c2ccc3[nH]nc(C(=O)O)c3c2)c1)OCc1ccccc1 | > 50 | > 50 | EC90 (Zika virus; Vero C1008, Baseline response 0 %, Hill slope 0.266, Maximum measured 1.773 %, Maximum response 100 %, Minimum measured -0.573 %, R squared 0.018): > 50 µM; EC90 (dengue virus type 2; Vero C1008, Maximum measured 168.4 %, Minimum measured 111.066 %, P-gp concentration 500 nM, P-gp inhibitor CP100356): > 50 µM |
| O=C(Nc1cccc(-c2nnn[nH]2)c1)c1cc(Cl)cc2[nH]ncc12 | > 50 | > 50 | EC90 (Zika virus; Vero C1008, Maximum measured 0.889 %, Minimum measured -1.258 %): > 50 µM; EC90 (dengue virus type 2; Vero C1008, Maximum measured 107.824 %, Minimum measured 101.456 %, P-gp concentration 500 nM, P-gp inhibitor CP100356): > 50 µM |
